How the values were obtained:
[1] = target: T1, Spo20p-GFP (Saccharomyces cerevisiae, UniProt Q04359); experiment: Recruitment of Spo20p-GFP to the plasma membrane of PC12 cells after incubation with GPL (confocal microscopy); format: cell-based; settings: GPL 100 μM, 5 min incubation, PC12 cells expressing Spo20p-GFP, FIG. 1
T1 construct: expressed in transfected cells; host or cells: PC12 cells
T1 sequence (Q04359 51-91 limits assumed): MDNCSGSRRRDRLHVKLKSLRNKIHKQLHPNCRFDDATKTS
Procedure: This example illustrates the interaction between GPL (Ia) or (Ib) and a phosphatidic acid (PA) mobilizing protein, the green-fluorescent protein Spo20p-GFP, expressed in target cells.
For this purpose, GPL (Ia) and, for comparative purposes, a natural GPL PA 18:1-18:0 (referred to hereinbelow as GPL C1) sold under reference 840861C by Avanti Polar Lipids, are incubated for 5 min at a concentration of 100 μM, with PC12 cells expressing Spo20p-GFP.
Similarly, GPL (Ib) and, for comparative purposes, a natural GPL PA 18:2-18:0 (referred to hereinbelow as GPL C2) sold under reference 840862C by Avanti Polar Lipids, are incubated for 5 min at a concentration of 100 μM, with PC12 cells expressing Spo20p-GFP.
The GPL-free cell medium is used as a control (referred to hereinbelow as […]).
A marker referred to hereinbelow as Membright (obtained from Mayeul Collot UMR-7021, Strasbourg) is incubated for 5 minutes on cells in media as prepared above to specifically mark the cells' plasma membrane.

[2] = target: T2, CgA-AF633 (Homo sapiens, UniProt P10645); experiment: Interaction of CgA-AF633 protein with giant liposomes containing GPL (confocal microscopy); format: binding; settings: CgA-AF633 4 μM, liposomes 96% DOPC / 4% GPL, FIG. 5
T2 sequence (P10645 19-457): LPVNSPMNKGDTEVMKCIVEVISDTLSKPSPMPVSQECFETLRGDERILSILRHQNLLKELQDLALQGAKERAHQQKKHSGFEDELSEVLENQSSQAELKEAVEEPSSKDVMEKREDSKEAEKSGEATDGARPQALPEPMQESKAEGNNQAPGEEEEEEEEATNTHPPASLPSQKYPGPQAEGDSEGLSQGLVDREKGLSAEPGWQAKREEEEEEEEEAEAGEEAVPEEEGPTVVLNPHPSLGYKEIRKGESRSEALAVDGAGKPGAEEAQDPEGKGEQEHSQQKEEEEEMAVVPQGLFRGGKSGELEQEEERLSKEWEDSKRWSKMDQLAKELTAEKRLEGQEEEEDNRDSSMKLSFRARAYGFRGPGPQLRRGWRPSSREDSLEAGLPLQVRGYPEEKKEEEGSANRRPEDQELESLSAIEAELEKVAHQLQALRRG
Excerpt: This example illustrates the interaction between GPL (XIVa), which fluoresces green (by means of a nitrobenzadiazole-based fluorophore), and a red-fluorescent phosphatidic acid (PA) mobilizing protein, CgA-AF633.
(§1) For this purpose, giant liposomes composed of 96% by mass of dioleoylphosphatidylcholine (DOPC) and 4% by mass of GPL (XIVa), and, for comparative purposes, giant liposomes composed of 96% by mass of dioleoylphosphatidylcholine (DOPC) and 4% by mass of a natural GPL modified with a nitrobenzadiazole-based fluorophore: PA 18:1-6:0 NBD sold under the reference 810175C by Avanti Polar Lipids, at a concentration of 1 mM, are prepared using the polyvinyl alcohol (PVA)-assisted swelling method as described in Carmon et al., FASEB J., 2020, 34:6769-6790).
CgA, rendered red-fluorescent due to its coupling with the fluorophore Alexa 633 or AF633 (CgA-AF633), is incubated at 4 μM concentration with liposomes as prepared above. […]

[3] = Formation of giant liposomes (96% DOPC / 4% GPL) by PVA-assisted swelling, light and confocal microscopy; format: physicochemical; settings: liposomes 96% by mass DOPC and 4% by mass GPL, 1 mM, FIG. 3 and 4
Procedure: as §1

SMILES | recruitment of the Spo20p-GFP protein to the plasma membrane [1] | interaction of the CgA-AF633 protein with liposomes containing the GPL [2] | membrane deformations in the liposomes on incubation with CgA-AF633 [2] | participation in the formation of giant liposomes [3]
CCCCCCCC/C=C\CCCCCCCC(=O)O[C@@H](COP(=O)(O)O)[C@H](CN=[N+]=[N-])OC(=O)CCCCCCCCCCCCCCCCC [GPL (Ia), (2S,3S)-4-azido-2-(oleoyloxy)-3-(stearoyloxy)butyl hydrogen phosphate] | bring about recruitment of the Spo20p-GFP protein to the plasma membrane of PC12 cells in the same manner as do the corresponding natural GPLs |  |  | 
CCCCCCCC/C=C\CCCCCCCC(=O)O[C@@H](COP(=O)(O)O)[C@H](Cn1nnc2c1-c1ccccc1CN(C(=O)CCCCCNc1ccc([N+](=O)[O-])c3nonc13)c1ccccc1-2)OC(=O)CCCCCCCCCCCCCCCCC [GPL (XIVa), (2S,3S)-4-(8-(6-((7-nitrobenzo[c][1,2,5]oxadiazol-4-yl)amino)hexanoyl)-8,9-dihydro-1H-dibenzo[b,f][1,2,3]triazolo[4,5-d]azocin-1-yl)-1-(phosphonooxy)-3-(stearoyloxy)butan-2-yl oleate] |  | only interacts with liposomes containing GPL (XIVa) | does result in membrane deformations | participates in the formation of giant liposomes
